Assay results as given in PubChem BioAssay AID248 (DTP/NCI, 2004).
Several values for one entry are separate records, joined by “and”; a condition that tells them apart may be missing. Equal entries are not always repeated. Inconclusive results and toxic doses are left out. No stated cut-off is given here; in the data, active means T/C of 150% or more; inactive means T/C below 125%.

System: L1210 leukemia ip in BDF1 mice, survival T/C
Assay: NCI In Vivo Anticancer Drug Screen. Data for tumor model L1210 Leukemia (intraperitoneal) in B6D2F1 (BDF1) mice
Conditions: endpoint: mean survival time, higher = longer survival
Procedure, shortened: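 Antitumor effect is assessed in tumor-bearing animals. Survival in the compound arm is compared with a vehicle-dosed control arm and expressed as their quotient.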

[1] = dose: 75.0 mg/kg/injection, schedule: Q01DX001 (ip), vehicle: saline
[2] = dose: 150.0 mg/kg/injection, schedule: Q01DX001 (ip), vehicle: saline
[3] = dose: 50.0 mg/kg/injection, schedule: Q01DX001 (ip), vehicle: saline
[4] = dose: 100.0 mg/kg/injection, schedule: Q01DX001 (ip), vehicle: saline
[5] = dose: 200.0 mg/kg/injection, schedule: Q01DX001 (ip), vehicle: saline
[6] = dose: 400.0 mg/kg/injection, schedule: Q01DX001 (ip), vehicle: saline
[7] = dose: 100.0 mg/kg/injection, schedule: Q01DX009 (ip), vehicle: saline with Tween-80
[8] = dose: 200.0 mg/kg/injection, schedule: Q01DX009 (ip), vehicle: saline with Tween-80
[9] = dose: 400.0 mg/kg/injection, schedule: Q01DX009 (ip), vehicle: saline with Tween-80
[10] = dose: 100.0 mg/kg/injection, schedule: Q01DX009 (ip), vehicle: saline
[11] = dose: 100.0 mg/kg/injection, schedule: Q04DX003 (ip), vehicle: saline
[12] = dose: 200.0 mg/kg/injection, schedule: Q01DX009 (ip), vehicle: saline
[13] = dose: 200.0 mg/kg/injection, schedule: Q04DX003 (ip), vehicle: saline
[14] = dose: 400.0 mg/kg/injection, schedule: Q01DX009 (ip), vehicle: saline
[15] = dose: 400.0 mg/kg/injection, schedule: Q04DX003 (ip), vehicle: saline
[16] = dose: 50.0 mg/kg/injection, schedule: Q01DX009 (ip), vehicle: saline
[17] = dose: 100.0 mg/kg/injection, schedule: Q01DX001 (ip), vehicle: other
[18] = dose: 200.0 mg/kg/injection, schedule: Q01DX001 (ip), vehicle: other
[19] = dose: 400.0 mg/kg/injection, schedule: Q01DX001 (ip), vehicle: other
[20] = dose: 100.0 mg/kg/injection, schedule: Q04DX003 (ip), vehicle: Klucel (hydroxypropylcellulose) (HPC)
[21] = dose: 200.0 mg/kg/injection, schedule: Q04DX003 (ip), vehicle: Klucel (hydroxypropylcellulose) (HPC)
[22] = dose: 400.0 mg/kg/injection, schedule: Q04DX003 (ip), vehicle: Klucel (hydroxypropylcellulose) (HPC)
[23] = dose: 100.0 mg/kg/injection, schedule: Q01DX009 (ip), vehicle: Klucel (hydroxypropylcellulose) (HPC)
[24] = dose: 200.0 mg/kg/injection, schedule: Q01DX009 (ip), vehicle: Klucel (hydroxypropylcellulose) (HPC)

Measured: T/C

C=CCC1(C(C)CCC)C(=O)NC(=S)NC1=O (stereo not given)
inactive: [1] 100 % of control | [2] 98 % of control | dose: 300.0 mg/kg/injection, schedule: Q01DX001 (ip), vehicle: saline 90 % of control

N#Cc1ccccc1CC(=O)c1ccccc1
inactive: [3] 101 % of control | [4] 97 % of control | [5] 93 % of control | [6] 100 % of control

C[N+]1(CCCNC(=O)Nc2ccc(Cl)cc2)CCOCC1
inactive: dose: 12.5 mg/kg/injection, schedule: Q04DX002 (ip), vehicle: saline 105 % of control | dose: 25.0 mg/kg/injection, schedule: Q04DX002 (ip), vehicle: saline 102 % of control | dose: 50.0 mg/kg/injection, schedule: Q04DX002 (ip), vehicle: saline 97 % of control

CC(C)(C)CC(C)(C)N(CSc1ccc([N+](=O)[O-])cc1)CSc1ccc([N+](=O)[O-])cc1
inactive: [4] 102 % of control | [5] 94 % of control | [6] 94 % of control

CO/C=C1\Cc2cc(OC)c(OC)cc2C1=O
inactive: [7] 102 % of control | [8] 104 % of control | [9] 94 % of control

CCCCCCCC/C=C\CCCCCCCC(=O)OCC1CCCO1 (stereo not given)
inactive: [7] 95 % of control | [8] 90 % of control | [9] 92 % of control

CCC([N+](=O)[O-])S(=O)(=O)c1ccc(C)cc1 (stereo not given)
inactive: [4] 98 % of control | [10] 98 % of control | [11] 102 % of control | [5] 95 % of control | [12] 94 % of control and 95 % of control | [13] 100 % of control | [6] 93 % of control | [14] 93 % of control and 103 % of control | [15] 94 % of control

O=C(Oc1ccc([N+](=O)[O-])cc1)c1ccc(C[n+]2ccccc2)cc1
inactive: [16] 97 % of control | [10] 97 % of control and 104 % of control | [11] 97 % of control | [12] 100 % of control and 106 % of control | [13] 90 % of control

COc1ccc(/C(C#N)=C/c2ccncc2)cc1OC
inactive: [17] 105 % of control | [18] 94 % of control | [19] 97 % of control

Cc1cc(Cl)c(Cl)cc1NC(=O)c1ccccc1F
inactive: [17] 94 % of control | dose: 100.0 mg/kg/injection, schedule: Q01DX009 (ip), vehicle: other 107 % of control and 92 % of control | dose: 100.0 mg/kg/injection, schedule: Q04DX002 (ip), vehicle: other 98 % of control and 102 % of control | dose: 100.0 mg/kg/injection, schedule: Q04DX003 (ip), vehicle: other 98 % of control | [18] 92 % of control | dose: 200.0 mg/kg/injection, schedule: Q01DX009 (ip), vehicle: other 90 % of control and 92 % of control | dose: 200.0 mg/kg/injection, schedule: Q04DX002 (ip), vehicle: other 105 % of control and 91 % of control | dose: 200.0 mg/kg/injection, schedule: Q04DX003 (ip), vehicle: other 100 % of control | [19] 91 % of control | dose: 400.0 mg/kg/injection, schedule: Q01DX009 (ip), vehicle: other 90 % of control and 92 % of control | dose: 400.0 mg/kg/injection, schedule: Q04DX002 (ip), vehicle: other 100 % of control and 102 % of control | dose: 400.0 mg/kg/injection, schedule: Q04DX003 (ip), vehicle: other 96 % of control

CC1(CCCC2C(=O)N(c3ccccc3)N(c3ccccc3)C2=O)OCCO1
inactive: [20] 104 % of control | [21] 98 % of control | [22] 94 % of control

O=c1cc(CO)[nH]nc1CO
inactive: [10] 97 % of control | [11] 101 % of control | [12] 97 % of control | [13] 106 % of control | [14] 97 % of control | [15] 103 % of control

CS(=O)(=O)/C=C(\I)c1ccccc1
inactive: [4] 97 % of control | [5] 97 % of control | [6] 93 % of control

Nc1cc2ncccc2c2ncccc12
inactive: [1] 107 % of control | [2] 102 % of control

O=C(Nc1c[nH]c(=O)[nH]c1=O)C(Cl)Cl
inactive: dose: 16.0 mg/kg/injection, schedule: Q01DX Z (ip), vehicle: methylcellulose (MC) 91 % of control | dose: 31.0 mg/kg/injection, schedule: Q01DX Z (ip), vehicle: methylcellulose (MC) 95 % of control | dose: 50.0 mg/kg/injection, schedule: Q01DX009 (ip), vehicle: Klucel (hydroxypropylcellulose) (HPC) 103 % of control | dose: 62.0 mg/kg/injection, schedule: Q01DX Z (ip), vehicle: methylcellulose (MC) 93 % of control | [23] 104 % of control | dose: 125.0 mg/kg/injection, schedule: Q01DX Z (ip), vehicle: methylcellulose (MC) 90 % of control | [24] 117 % of control

[Br][Hg][CH2]COC[CH2][Hg][Br]
inactive: dose: 6.25 mg/kg/injection, schedule: Q01DX009 (ip), vehicle: Klucel (hydroxypropylcellulose) (HPC) 103 % of control | dose: 12.5 mg/kg/injection, schedule: Q01DX009 (ip), vehicle: Klucel (hydroxypropylcellulose) (HPC) 93 % of control | dose: 25.0 mg/kg/injection, schedule: Q01DX009 (ip), vehicle: Klucel (hydroxypropylcellulose) (HPC) 112 % of control

CCCCC(CCCC)CCCC
inactive: dose: 100.0 mg/kg/injection, schedule: Q04DX002 (ip), vehicle: saline with Tween-80 97 % of control | dose: 200.0 mg/kg/injection, schedule: Q04DX002 (ip), vehicle: saline with Tween-80 106 % of control | dose: 400.0 mg/kg/injection, schedule: Q04DX002 (ip), vehicle: saline with Tween-80 103 % of control

Clc1ccccc1C(c1ccccc1)(c1ccc2ccccc2c1)n1ccnc1 (stereo not given)
inactive: [20] 102 % of control | [21] 101 % of control | [22] 101 % of control

COc1ccccc1-n1c(O)c(N=Nc2ccccc2C)c(=O)n(-c2ccc(Br)cc2)c1=S
inactive: dose: 37.5 mg/kg/injection, schedule: Q01DX001 (ip), vehicle: Klucel (hydroxypropylcellulose) (HPC) 94 % of control | dose: 75.0 mg/kg/injection, schedule: Q01DX001 (ip), vehicle: Klucel (hydroxypropylcellulose) (HPC) 106 % of control | dose: 150.0 mg/kg/injection, schedule: Q01DX001 (ip), vehicle: Klucel (hydroxypropylcellulose) (HPC) 87 % of control

N#Cc1cn(C2OC(CO)C(O)C2O)c2ncnc(N)c12 (stereo not given)
inactive: dose: 0.04 mg/kg/injection, schedule: Q01DX009 (ip), vehicle: saline 119 % of control | dose: 0.08 mg/kg/injection, schedule: Q01DX005 (ip), vehicle: saline 86 % of control | dose: 0.09 mg/kg/injection, schedule: Q01DX009 (ip), vehicle: saline 107 % of control | dose: 0.12 mg/kg/injection, schedule: Q01DX005 (ip), vehicle: saline 96 % of control

Cc1ccc(N(CCCl)CCCl)cc1NC(=O)c1ccccc1
inactive: [17] 102 % of control | [18] 102 % of control | [19] 109 % of control

COc1ccc(OC)c(NC(=O)Nc2cccc(Cl)c2Cl)c1
inactive: [20] 86 % of control | [21] 90 % of control | [22] 88 % of control

O=S1(=O)C=Cc2ccccc21
inactive: [4] 106 % of control | dose: 100.0 mg/kg/injection, schedule: Q01DX009 (ip), vehicle: acetone 92 % of control | [11] 95 % of control | [5] 106 % of control | dose: 200.0 mg/kg/injection, schedule: Q01DX009 (ip), vehicle: acetone 91 % of control | [13] 97 % of control | [6] 100 % of control | dose: 400.0 mg/kg/injection, schedule: Q01DX009 (ip), vehicle: acetone 97 % of control | [15] 88 % of control

Cc1cccc(C)c1OCC1=NCCN1
inactive: dose: 12.0 mg/kg/injection, schedule: Q01DX009 (ip), vehicle: saline 105 % of control | dose: 25.0 mg/kg/injection, schedule: Q01DX009 (ip), vehicle: saline 111 % of control | [16] 108 % of control

O=c1ccn(Cc2ccccc2)c(=S)[nH]1
inactive: [3] 97 % of control | [4] 94 % of control | [5] 97 % of control | [6] 100 % of control

CC(=O)OC1CC(OC2C(O)CC(OC3C(O)CC(OC4CCC5(C)C(CCC6C5CCC5(C)C(C7=CC(=O)OC7)CCC65O)C4)OC3C)OC2C)OC(C)C1OC1OC(CO)C(O)C(O)C1O (stereo not given)
inactive: dose: 10.0 mg/kg/injection, schedule: Q01DX001 (ip), vehicle: saline 101 % of control

COc1ccc(NC(=O)Oc2ccc(Cl)cc2Cl)c(OC)c1
inactive: [23] 114 % of control | [24] 101 % of control
